The values that follow come from US11293023B2, “Tunable endogenous protein degradation” (Dana-Farber Cancer Institute, Inc., priority 2015, dated 2022).

In this assay the target is T1, FKBP* fused to Nluc (Homo sapiens, UniProt P62942+Q96SW2, F37V).
T1 construct: expressed in transfected cells; host or cells: 293FT cells (wild type or CRBN-/-)
Description: Nluc/Fluc luciferase signal ratio assay of FKBP* degradation in 293FT cells. The class given is cell-based. Conditions: wild type or CRBN−/− 293FT cells, indicated concentrations, 4 hours. The method, then:
FIG. 5A and FIG. 5B are graphs measuring the activity of a panel of dFKBP heterobifunctional compounds in cells expressing FKBP* fused to Nluc. Degradation of FKBP* is measured as a signal ration (Nluc/Fluc) between NANOluc and firefly luciferase from the same multicistronic transcript in wild type (FIG. 7A) or CRBN−/− ([…]) 293FT cells treated with indicated concentrations of dFKBPs for 4 hours. A decrease in the signal ratio indicates FKBP* (Nluc) degradation.
In an effort to identify potent and selective dFKPB heterobifunctional compounds, high throughput measurements of targeted FKBP* degradation were measured by surrogate levels of luciferase. Here, FKBP* is exogenously expressed as a multicistronic transcript with two types of luciferase: nano luciferase (NLuc) and firefly luciferase (FLuc) that allow for cell normalized quantification of FKBP* protein levels. Degradation of FKBP* is measured as a signal ration (Nluc/Fluc) in wild type (FIG. 4A) or CRBN−/− (FIG. 4B) 293FT cells treated with indicated concentrations of dFKBPs for 4 hours.

T1 sequence (P62942 2-108 F37V limits assumed): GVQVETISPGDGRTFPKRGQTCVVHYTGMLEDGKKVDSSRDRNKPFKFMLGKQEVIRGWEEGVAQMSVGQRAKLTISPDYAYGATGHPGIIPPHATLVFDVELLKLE
T1 sequence (Q96SW2 whole entry, the tested form may be a part): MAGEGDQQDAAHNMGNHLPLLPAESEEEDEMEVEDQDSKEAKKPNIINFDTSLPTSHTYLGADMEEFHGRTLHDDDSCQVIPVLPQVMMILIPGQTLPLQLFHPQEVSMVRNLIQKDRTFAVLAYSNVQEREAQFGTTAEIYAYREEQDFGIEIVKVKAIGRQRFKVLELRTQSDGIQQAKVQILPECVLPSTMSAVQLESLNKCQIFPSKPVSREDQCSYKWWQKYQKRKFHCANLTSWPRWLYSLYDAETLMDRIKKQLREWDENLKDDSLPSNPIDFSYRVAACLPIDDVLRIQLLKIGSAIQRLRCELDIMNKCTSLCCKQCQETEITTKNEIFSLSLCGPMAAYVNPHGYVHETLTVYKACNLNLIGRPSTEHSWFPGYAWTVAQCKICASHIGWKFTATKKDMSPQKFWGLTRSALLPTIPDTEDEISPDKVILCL
T1 sequence (Q16531 whole entry partner, the tested form may be a part): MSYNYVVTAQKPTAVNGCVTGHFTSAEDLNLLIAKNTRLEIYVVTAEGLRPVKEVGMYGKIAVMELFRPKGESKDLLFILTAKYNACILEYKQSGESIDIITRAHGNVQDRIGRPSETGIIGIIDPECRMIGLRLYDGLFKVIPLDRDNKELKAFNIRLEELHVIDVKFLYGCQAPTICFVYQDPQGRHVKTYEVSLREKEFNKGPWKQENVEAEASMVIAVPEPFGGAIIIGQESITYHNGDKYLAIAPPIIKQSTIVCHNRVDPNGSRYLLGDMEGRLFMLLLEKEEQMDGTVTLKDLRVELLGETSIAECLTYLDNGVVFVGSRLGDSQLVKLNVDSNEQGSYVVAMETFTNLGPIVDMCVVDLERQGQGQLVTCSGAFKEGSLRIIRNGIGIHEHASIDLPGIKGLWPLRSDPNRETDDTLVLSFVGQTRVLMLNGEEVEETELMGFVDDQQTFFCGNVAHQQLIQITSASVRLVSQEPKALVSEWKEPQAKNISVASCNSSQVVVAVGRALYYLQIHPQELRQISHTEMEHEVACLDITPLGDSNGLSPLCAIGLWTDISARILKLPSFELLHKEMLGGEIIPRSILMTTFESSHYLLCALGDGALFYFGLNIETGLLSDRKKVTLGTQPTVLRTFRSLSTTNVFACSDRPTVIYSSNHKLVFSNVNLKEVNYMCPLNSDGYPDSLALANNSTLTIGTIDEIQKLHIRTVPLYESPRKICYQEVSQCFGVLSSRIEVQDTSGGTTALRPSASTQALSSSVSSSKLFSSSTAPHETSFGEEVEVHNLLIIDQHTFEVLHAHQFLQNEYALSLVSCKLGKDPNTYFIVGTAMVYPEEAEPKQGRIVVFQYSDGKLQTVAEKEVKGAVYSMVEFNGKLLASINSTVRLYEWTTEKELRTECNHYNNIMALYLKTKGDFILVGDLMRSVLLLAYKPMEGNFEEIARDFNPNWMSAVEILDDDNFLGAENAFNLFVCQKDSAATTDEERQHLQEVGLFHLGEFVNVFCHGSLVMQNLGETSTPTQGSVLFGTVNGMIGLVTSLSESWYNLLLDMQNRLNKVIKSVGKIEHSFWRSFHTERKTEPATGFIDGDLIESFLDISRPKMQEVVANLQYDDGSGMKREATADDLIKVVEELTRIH

Turning to `CC[C@H](C(=O)N1CCCC[C@H]1C(=O)O[C@H](CCc1ccc(OC)c(OC)c1)c1cccc(OCC(=O)NCCCOCCOCCOCCCNC(=O)COc2cccc3c2C(=O)N(C2CCC(=O)NC2=O)C3=O)c1)c1cc(OC)c(OC)c(OC)c1` (stereo partly shown) [dFKBP7], the “FKBP* degradation as signal ratio (Nluc/Fluc)” value is reported as “effectively degrade FKBP* in a cereblon dependent manner”.
